Test results from ChEMBL document CHEMBL5329193, “Targeting Mycobacterium tuberculosis iron-scavenging tools: a recent update on siderophores inhibitors” (RSC Med Chem, 2023).
Values after ≈ are worked out from the molar mass of the structure shown.

Test system: Mycobacterium tuberculosis
Experiment: Antitubercular activity against Multi-drug resistant Mycobacterium tuberculosis assessed as inhibition of bacterial growth incubated for 14 days by microplate alamar blue assay
Assay type: functional
Settings: 336 h, time 14 day

## CCCCCCCCCCCCCCCCC(=O)N(O)CCCC[C@H](NC(=O)[C@@H]1COC(c2ccccc2O)=N1)C(=O)NC[C@H](CC(=O)CCCO[C@H]1O[C@@H]2O[C@@]3(C)CC[C@H]4[C@H](C)CC[C@@H]([C@H]1C)[C@@]24OO3)C(=O)N[C@H]1CCCCN(O)C1=O
  MIC: 0.16 µg/mL (≈ 0.137 µM)
